Data reported in patent publication US10076505B2, “Inhalation formulations of Treprostinil” (priority 2003, dated 2018).

How the values were obtained:
[1] = test system: sheep; assay: Aerosolized UT-15 at high doses on baseline hemodynamics (Example III); format: in vivo
Source text: The efficacy of benzindene prostaglandins, such as UT-15, for treating pulmonary hypertension can be assessed by determining the hemodynamics associated with pulmonary hypertension. In particular, measurements of pulmonary arterial pressure (PPA), left atrial pressure (PLA), central venous pressure (PCV), systemic arterial pressure (PSYS), heart rate (HR), and cardiac output (CO) are useful in determining the effects of benzindene prostaglandins delivered by inhalation or parenterally.
Although pulmonary arterial pressure can be directly measured and is often used to quantify pulmonary arterial hypertension, PPA can be affected by 3 other variables: CO, PLA and PVR, as indicated by Equation 1: PPA=(CO*PVR)+PLA (1)
On the other hand, PVR can not be directly measured and must be calculated by the following Equation 2: PVR=(PPA−PLA)/CO (2)
Heart rate was determined by measuring the time (seconds) required for 25 heart beats to occur (t25) as indicated by the pulsations on the blood flow meter; the beats per minute (BPM) were calculated by the following equation: BPM=(25 beats/t25)*60 seconds
All pressure may be monitored by commercially available transducers, such as Model 1290A HEWLETT PACKARD™ transducer (Andover, Mass.), which is attached to VALIDYNE CD19A Carrier Dmod. Amplifiers (Northridge, Calif.). Cardiac output may be measured by a Transonic Systems T101 Ultrasonic Bloodflow Meter (Ithaca, N.Y.). The pressure and blood flow signals may be recorded on ASTROMED MT-9500 Stripchart Recorder (West Warwick, R.I.) and digitally recorded with a personal computer using Easy Data Acquisition Software (Nashville, Tenn.).
(§1) Six yearling sheep (3 males, 3 females; 21-37 kg) were fasted 18-24 hours and initially anesthetized with a short acting barbiturate (thiopental) to allow intubation of the sheep. Halothane gas anesthesia (1.5-2.5%) was then used for the surgical procedures. Via a left thoracotomy, a Transonic blood flow probe was placed around the main pulmonary artery, silastic catheters placed in the main pulmonary artery and left atrium. After approximately 7 days the sheep were reanesthetized and the left carotid artery cannulated, a Cordis Introducer Sheath inserted in the left jugular vein, and a tracheotomy made. The sheep were allowed to recover for another 3-5 days prior to experimentation. These sheep were used to allow measurement of pulmonary arterial pressure (PPA), left atrial pressure (PLA), central venous pressure (PCV), systemic arterial pressure (PSYS), heart rate (HR), and cardiac output (CO) after baseline measurements were made for a minimum of 30 minutes.
Baseline measurements consisted of 30 minutes of monitoring during vehicle/saline aerosolization (0.28 ml/min). […]

[2] = test system: sheep; assay: Intravenous and aerosolized UT-15 dose response on baseline hemodynamics (Example IV); format: in vivo; conditions: baseline conditions; for PCV relative to baseline: any dose; for CO relative to baseline: any delivery rate; for PSYS: any rate
Procedure: as §1, with “minutes. Two separate experiments were conducted to determine the dose response effects of intravenously infused UT-15 on baseline hemodynamics and aerosolized UT-15 on baseline hemodynamics. For the infusion experimental protocol, after a 30 minute baseline was established, UT-15 was infused intravenously at 3 rates (250, 500 and 1000 ng per kg per min). In three sheep, the infusion rates lasted for 30 minutes each, and for the other three sheep, the infusions were for 60 minutes each. […] Again, three sheep were aerosolized for 30 minutes and the other three sheep were aerosolized for 60 minutes.” for “minutes.”

[3] = test system: Buerger's disease; assay: Case report: subcutaneous Treprostinil in severe Buerger's disease (Example IX); format: in vivo, human
Procedure: At this point, subcutaneous Treprostinil therapy was administered to the patient. Treprostinil was delivered chronically by continuous subcutaneous infusion using a pager-sized ambulatory infusion pump (Medtronic Minimed 407C, Minneapolis, Minn.)). […] The patient is now on a maintenance dose of Treprostinil 12 ng/kg/min from 9 PM-9 AM every seventh day, with no drug for the next 7 days.

[4] = test system: large blood vessels of the lower limbs; conditions: patients with severe intermittent claudication; cited from earlier work
[5] = 3800-5700 ng per kg per min, 90 minutes

CCCCC[C@H](O)CC[C@@H]1[C@H]2Cc3cccc(OCC(=O)O)c3C[C@H]2C[C@H]1O [UT-15, 9-deoxy-2′,9-alpha-methano-3-oxa-4,5,6-trinor-3,7-(1′,3′-interphenylene)-13,14-dihydro-prostaglandin F1]
PPA decrease relative to baseline [1, 5]: approximately 18%
PSYS decrease relative to baseline [1, 5]: 7.5%
PVR decrease relative to baseline [1, 5]: approximately 19%
non-lung effects (heart rate, cardiac output) ([1]; high doses): without significant non-lung effects
PCV relative to baseline ([2]; aerosol): no statistical difference
PLA relative to baseline ([2]; aerosolized (mean values increased)): neither intravenous nor aerosolized UT-15 caused PLA to significantly change
heart rate ([2]; aerosolized, 3 rates): no effect
pulmonary vascular driving pressure (PPA minus PLA) change from baseline ([2]; aerosolized, 250, 500, and 100 ng per kg per min): significant
PVR ([2]; aerosolized, all 3 delivery rates): significant decrease
CO relative to baseline ([2]; aerosolized): no significant changes
PSYS ([2]; aerosolized): no significant effect
PPA relative to baseline ([2]; aerosolized, not statistically different): general trend for PPA to decrease
PVR ([2]; intravenous): no significant effect
heart rate ([2]; intravenous 250, 500 and 1000 ng per kg per min): significantly increased
PLA relative to baseline ([2]; intravenous (mean values decreased)): neither intravenous nor aerosolized UT-15 caused PLA to significantly change
CO relative to baseline ([2]; intravenous): no significant changes
PCV relative to baseline ([2]; intravenous): no statistical difference
PSYS ([2]; intravenous): no significant effect
PPA relative to baseline ([2]; intravenous, same as PCV (no statistical difference)): The same effects were also observed
dose limiting side effects ([3]; in vivo): diarrhea and jaw pain
Doppler studies ([3]; one patient): improvement in pulse volume recording wave form
return of ischemic symptoms after attempts to discontinue ([3]; one patient): ≤ 1 week
maximum tolerated dose ([3]; one patient, continuous subcutaneous infusion): 12.5 ng/kg/min
ulcer on right middle finger ([3]; one patient, maintenance 12 ng/kg/min): complete healing
patient-reported comfort and activities of daily living ([3]; one patient, sc infusion 12.5 ng/kg/min): improved comfort and increased ability to participate in activities of daily living
blood flow in large blood vessels of the lower limbs [4]: increase in blood flow
